From patent publication US20150004262A1, “ANESTHETIC AND THERAPEUTIC COMPOSITION FOR USE IN AQUACULTURE” (priority 2012, published 2015)

Assays:
serum MDA (TBARS) [1] = experiment: Serum TBARS assay, sheam; format: in vivo, Acanthopagrus latus
Description: (§1) C. Thiobarbituric Acid Reactive Substances (TRARS) Assay.

serum MDA (TBARS) [2] = experiment: Serum TBARS assay, sobaity; format: in vivo, Sparidentex hasta
Description: as §1

[3] = Experiment 8: oil residues in fish fillet tissue, sheam; parameters: species or system Acanthopagrus latus; settings: in vivo
Description: (§2) Thyme oil consists mainly of thymol. On the other hand, oregano oil consists mainly of carvacrol (40-70%) and thymol, while cinnamon oil consists mainly of (65 to 75% of the oil) is cinnamaldehyde.

[4] = Experiment 8: oil residues in fish fillet tissue, sobaity; parameters: species or system Sparidentex hasta; settings: in vivo
Description: as §2

| Compound | MDA (serum MDA (TBARS) [1]) [nmol/mL] | Relative Activity (RA) in comparison to control serum (serum MDA (TBARS) [1]) | MDA (serum MDA (TBARS) [2]) [nmol/mL] | Relative Activity (RA) in comparison to control serum (serum MDA (TBARS) [2]) | residue in fillet tissue [3] [ppm/fish] | residue in fillet tissue [4] [ppm/fish] |
| --- | --- | --- | --- | --- | --- | --- |
| Cc1ccc2ccccc2n1 [Quinaldene, quinaldine] | 0.0410 ± 0.002 | 89.13 | 0.0365 ± 0.003 | 79.27 | – | – |
| cinnamon oil (Cinnamomum zeylanicum) | – | – | – | – | 0.17 | 0.52 |
